Literature values as cited in patent US7091196B2, “Bifunctional heterocyclic compounds and methods of making and using same” (Rib-X Pharmaceuticals, Inc., priority 2002, dated 2006).

Settings: literature report, Gregory et al. (1989) J. Med. Chem. 32: 1673-1681

## COC(=O)c1nnn(C[C@@H]2CN(c3ccc(C(C)=O)cc3)C(=O)O2)c1C(=O)OC [Compound 6]
  activity as an antibacterial agent: inactive
